# Patent US20240335453A1, “METALLO-ß-LACTAMASE INHIBITORS” (University of KwaZulu-Natal, priority 2021, published 2024)
# Values joined by “and” are separate entries in the source; they are usually repeats but may differ in a detail not shown here. Identical values can stand only once. “Also recorded” adds a separate entry of the source. Like-named read-outs stand apart in the source and are kept apart here.
# Assays:
# HepG2 cells [1] = experiment: Cell viability (MTT) assay; type: cell-based, Human; details: for IC50: Homo sapiens, HepG2, 24 h; for HepG2 cell viability, effect in words: relative to control
# Method: Human hepatoma (HepG2) cells were cultured in Dulbecco minimum essential medium (Lonza Biowhittaker, Switzerland) supplemented with 1% pen/strep/fungizone, 1% L-glutamine and 10% fetal bovine serum. The cells were maintained under the atmosphere of 5% CO2 at 37° C. Once 80% confluence had been reached, cells were enzymatically detached (trypsin) and utilized for the cell viability assay. The effect of MPR-SMN-05 on cell viability was determined using the 3-(4,5-Dimethyl-2-thiazolyl)-2,5-diphenyl-2H-tetrazolium bromide (MTT) assay according to previously reported studies by Mosmann (Mosmann T. Rapid colorimetric assay for cellular growth and survival: application to proliferation and cytotoxicity assays. Journal of immunological methods 1983; 65: 55-63). Approximately 15, 000 cells were seeded in a 96-well microtiter plate and allowed to adhere overnight. The cells were subsequently exposed to a range of 0 to 250 mg/L MPR-SMN-05 (experiments were done in triplicate). After incubation with MPR-SMN-05 for 24 h, cells were washed twice with 0.1 M phosphate buffer saline (PBS) and incubated with 20 μl MTT salt solution (5 mg/ml in 0.1 M PBS) and 100 μl complete culture medium (CCM) (37° C., 4 h). The MTT salt solution was then discarded and […] of DMSO was added to each well and incubated (37° C., 1 h) to dissolve the formazan crystals. The optical density was measured at 570/690 nm employing a spectrophotometer (Bio-Tek uQuant, Winooski, VT). The results were expressed as percentage cell viability vs. log concentration of MPR-SMN-05, from which the half maximal inhibitory concentration (IC50) was determined. Control treatments were represented by an equal amount of DMSO solvent in CCM without the test compound.
# HepG2 cells [2] = experiment: Lactate dehydrogenase (LDH) cytotoxicity assay; type: cell-based, Human; details: for Induction of necrosis / Extracellular lactate dehydrogenase (LDH) level: HepG2 cells; for Induction of necrosis: from LDH; for Extracellular lactate dehydrogenase (LDH) level: relative to control
# Method: Human hepatoma (HepG2) cells were cultured in Dulbecco minimum essential medium (Lonza Biowhittaker, Switzerland) supplemented with 1% pen/strep/fungizone, 1% L-glutamine and 10% fetal bovine serum. The cells were maintained under the atmosphere of 5% CO2 at 37° C. Once 80% confluence had been reached, cells were enzymatically detached (trypsin) and utilized for the cell viability assay. The lactate dehydrogenase (LDH) cytotoxicity detection kit (Roche, Mannheim, Germany) was used to measure the cell damage and cytotoxicity in MPR-SMN-05-treated HepG2 cells. Extracellular LDH activity was quantified by incubating […] substrate solution (diaphorase/NAD+; INT/sodium lactate) in a 96 well microtiter plate at room temperature for 30 min. The assay was performed in triplicate. Optical density (OD) was measured following incubation at 500 nm using a spectrophotometric plate reader (Bio-Tek uQuant, Winooski, VT).
# E. cloacae IMP-8 = experiment: MIC broth microdilution checkerboard; type: cell-based; details: Enterobacter cloacae
# Method: (§1) Briefly, two-fold dilutions of each meropenem/BP or meropenem/TG from 0.015 to 16 μg/mL and 1 to 64 μg/mL respectively were made in cation adjusted Mueller-Hinton Broth (CAMHB) in a 96-well microtitre plate using the checkerboard method (King et al). A 0.5 McFarland-standardized bacterial inoculum was added to make a total volume of 100 μl in each microtitre well. The initial inoculum density was determined by plating out MHA plates for MBC testing. The plates were then incubated for 18-22 h at 37° C. under aerobic conditions. The MIC was determined as the lowest concentration at which there was no visible growth. Control wells included the amount of solvent used in dissolving drug candidates.
# (§2) To investigate the potential activity of BP1 and TG1 as MBLs inhibitors well characterized carbapenem-resistant bacteria expressing known class B carbapenemases were used. MICs using the broth micro-dilution method was conducted according to CLSI guidelines (Clinical and Laboratory Standards Institute. Performance Standards for Antimicrobial Susceptibility Testing: Twenty-Fourth Informational Supplement M100-S24. CLSI, Wayne, PA, USA, 2014) using cation adjusted Mueller-Hinton broth for meropenem, alone (See table 4) and in combination with the metal chelating agents BP1 and TG1 at variable concentrations (two-fold dilutions from 1 to 64 μg/mL). Escherichia coli ATCC 25922 was used as the control.
# E. cloacae VIM-1 = experiment: MIC broth microdilution checkerboard; type: cell-based; details: Enterobacter cloacae
# Method: as §1, §2
# E. coli IMP-1 = experiment: MIC broth microdilution checkerboard; type: cell-based; details: Escherichia coli
# Method: as §1, §2
# E. coli NDM-4 = experiment: MIC broth microdilution checkerboard; type: cell-based; details: Escherichia coli
# Method: as §1, §2
# K. pneumonia IMP-1 = experiment: MIC broth microdilution checkerboard; type: cell-based; details: Klebsiella pneumoniae
# Method: as §1, §2
# K. pneumonia VIM-1 = experiment: MIC broth microdilution checkerboard; type: cell-based; details: Klebsiella pneumoniae
# Method: as §1, §2
# K. pneumoniae IMP-8 [3] = experiment: MIC broth microdilution checkerboard; type: cell-based; details: Klebsiella pneumoniae
# Method: as §1, §2
# P. rettgeri NDM-1 = experiment: MIC broth microdilution checkerboard; type: cell-based; details: Providencia rettgeri
# Method: as §1, §2
# E. coli NDM-1 [4] = experiment: MIC broth microdilution checkerboard; type: cell-based, Escherichia coli
# Method: as §1, §2
# [5] = system: Klebsiella pneumoniae 449; experiment: MIC broth microdilution checkerboard; type: cell-based; details: read-out: MIC, Meropenem administered alone
# Method: as §1
# E. coli NDM-1 [6] = experiment: Time-kill assay; type: cell-based; details: BP1 in combination with meropenem
# Method: (§3) Time-kill studies were performed according to previously published methods, including those described by CLSI document M26-A. E. coli NDM-1, K. pneumoniae IMP-8 and K. pneumoniae NDM were the strains selected for this assay. Briefly, freshly prepared colonies were re-suspended in 10 mL CAMHB and incubated in a shaking incubator (37° C., 180 rpm) for 1 to 2 h. Cultures were then diluted to a 0.5 McFarland standard (approximately 10^8 CFU/mL) and further diluted 1:20 in CAMHB so that the starting inoculum was approximately 5×10^6 CFU/mL. […] A growth control with no antibiotic was also included. The starting inoculum was determined from the growth control tube immediately after dilution and was recorded as the count at time zero. After addition of antibiotics, the starting inoculum was approximately 1×10^6 to 5×10^6 CFU/mL. Tubes were incubated in a shaking incubator at 37° C., 180 rpm, and viability counts were performed at 1, 2, 4, 6, 8 and 24 h by removing 100 μL of the culture, diluting as appropriate, and plating 100 μL on MHA. MHA plates were incubated at 37° C. for at least 18 h. Colonies were counted, and the results were recorded as the number of CFU/mL. A ≥3−log10 decrease in the number of CFU/mL was considered bactericidal.
# K. pneumoniae IMP-8 [7] = experiment: Time-kill assay; type: cell-based; details: BP1 in combination with meropenem
# Method: as §3
structure (smiles),measurement,setting,value
CCN1CCN(CC)CCN(C(CC(=O)Nc2nc(/C(=C/CC(=O)O)C(=O)N[C@@H]3C(=O)N4C(C(=O)O)=CCS[C@H]34)cs2)C(=O)OC)CC1 (stereo partly drawn) [BP14],IC50,HepG2 cells [1],42.3 µg/mL
same,"HepG2 cell viability, effect in words",HepG2 cells [1],reduced cell viability at 1 μg/ml and 10-200 μg/ml; also recorded: proliferation occurred at 8 μg/ml
same,Induction of necrosis,HepG2 cells [2],does not induce necrosis
same,Extracellular lactate dehydrogenase (LDH) level,HepG2 cells [2],significantly reduced at 8 μg/ml; also recorded: remained unaffected at 1 μg/ml and 10-200 μg/ml
C[C@@H](O)[C@H]1C(=O)N2C(C(=O)O)=C(S[C@@H]3CN[C@H](C(=O)N(C)C)C3)[C@H](C)[C@H]12 [Meropenem],MIC,"E. cloacae IMP-8; IMP8, E. cloacae IMP-8, read-out: MIC MEM alone",8 µg/mL and 21 µM
same,MIC,"E. cloacae VIM-1; VIM1, E. cloacae VIM-1, read-out: MIC MEM alone",8 µg/mL and 21 µM
same,MIC,"E. coli IMP-1; IMP1, read-out: MIC MEM alone",16 µg/mL and 42 µM
same,MIC,"E. coli NDM-4; NDM4, E. coli NDM-4, read-out: MIC MEM alone",> 16 µg/mL and > 42 µM
same,MIC,"K. pneumonia IMP-1; IMP1, K. pneumonia IMP-1, read-out: MIC MEM alone",> 16 µg/mL and > 42 µM
same,MIC,"K. pneumonia VIM-1; VIM1, K. pneumonia VIM-1, read-out: MIC MEM alone",> 16 µg/mL and > 42 µM
same,MIC,"K. pneumoniae IMP-8 [3]; IMP8, K. pneumoniae IMP-8, read-out: MIC MEM alone",8 µg/mL and 21 µM
same,MIC,"P. rettgeri NDM-1; NDM1, P. rettgeri NDM-1, read-out: MIC MEM alone",> 16 µg/mL and > 42 µM
same,MIC,"E. coli NDM-1 [4]; Escherichia coli, NDM1, E. coli NDM-1, read-out: MIC MEM alone",> 16 µg/mL and > 42 µM
same,MIC,"E. coli NDM-1 [4]; NDM1, Escherichia coli NDM-1 (Table 6 footnote), read-out: MIC, Meropenem administered alone",> 32 µg/mL
same,MIC,[5],> 32 µg/mL
CCN1CCN(CC)CCN(C(CC(=O)NC2C(=O)N3C(C(=O)[O-])=C(C[n+]4ccccc4)CSC23)C(=O)OC)CC1 (stereo not drawn) [BP1],MIC,"E. cloacae IMP-8; IMP8, E. cloacae IMP-8, read-out: MIC BP1 alone",> 64 µg/mL and > 84 µM
same,MIC,"E. cloacae VIM-1; VIM1, E. cloacae VIM-1, read-out: MIC BP1 alone",> 64 µg/mL and > 84 µM
same,MIC,"E. coli IMP-1; IMP1, read-out: MIC BP1 alone",> 64 µg/mL and > 84 µM
same,MIC,"E. coli NDM-4; NDM4, E. coli NDM-4, read-out: MIC BP1 alone",> 64 µg/mL and > 84 µM
same,MIC,"K. pneumonia IMP-1; IMP1, K. pneumonia IMP-1, read-out: MIC BP1 alone",> 64 µg/mL and > 84 µM
same,MIC,"K. pneumonia VIM-1; VIM1, K. pneumonia VIM-1, read-out: MIC BP1 alone",> 64 µg/mL and > 84 µM
same,MIC,"K. pneumoniae IMP-8 [3]; IMP8, K. pneumoniae IMP-8, read-out: MIC BP1 alone",> 64 µg/mL and > 84 µM
same,MIC,"P. rettgeri NDM-1; NDM1, P. rettgeri NDM-1, read-out: MIC BP1 alone",> 64 µg/mL and > 84 µM
same,MIC,"E. coli NDM-1 [4]; Escherichia coli, NDM1, E. coli NDM-1, read-out: MIC BP1 alone",> 64 µg/mL and > 84 µM
same,Time-kill kinetics outcome,E. coli NDM-1 [6],bactericidal activity
same,Time-kill kinetics outcome,K. pneumoniae IMP-8 [7],bactericidal activity
same,IC50,HepG2 cells [1],60 µg/mL
same,"HepG2 cell viability, effect in words",HepG2 cells [1],dose-dependent decrease in cell viability was observed with a significant decrease occurring at 100 and 200 μg/ml
same,Induction of necrosis,HepG2 cells [2],does not induce necrosis
same,Extracellular lactate dehydrogenase (LDH) level,HepG2 cells [2],significantly reduced at all concentrations
same,"Cytotoxicity, overall statement","HepG2 cells [2]; in vitro, cell lines",safe at the active concentrations
C/C=C(/C(=O)N[C@@H]1C(=O)N2C(C(=O)O)=C(CSC(=O)c3ccco3)CS[C@H]12)c1csc(NC(=O)CC(C)N2CCN(CC)CCN(CC)CC2)n1 (stereo partly drawn) [BP6],IC50,HepG2 cells [1],51.8 µg/mL
same,"HepG2 cell viability, effect in words",HepG2 cells [1],dose dependent increase in the cell viability; also recorded: only significantly altered at 200 μg/ml
same,Induction of necrosis,HepG2 cells [2],does not induce necrosis
same,Extracellular lactate dehydrogenase (LDH) level,HepG2 cells [2],significantly reduced at all concentrations
"O=C(O)CN1CCN(CC(=O)O)CCN(CC(=O)O)CC1 [TG1, 1,4,7-triazacyclononane-1,4,7-triacetic acid]",MIC,"E. cloacae IMP-8; IMP8, read-out: MIC TG1 alone",> 64 µg/mL and > 131 µM
same,MIC,"E. cloacae VIM-1; VIM1, read-out: MIC TG1 alone",> 64 µg/mL and > 131 µM
same,MIC,"E. coli IMP-1; IMP1, read-out: MIC TG1 alone",> 64 µg/mL and > 131 µM
same,MIC,"E. coli NDM-4; NDM4, read-out: MIC TG1 alone",> 64 µg/mL and > 131 µM
same,MIC,"K. pneumonia IMP-1; IMP1, read-out: MIC TG1 alone",> 64 µg/mL and > 131 µM
same,MIC,"K. pneumonia VIM-1; VIM1, read-out: MIC TG1 alone",> 64 µg/mL and > 131 µM
same,MIC,"K. pneumoniae IMP-8 [3]; IMP8, read-out: MIC TG1 alone",> 64 µg/mL and > 131 µM
same,MIC,"P. rettgeri NDM-1; NDM1, read-out: MIC TG1 alone",> 64 µg/mL and > 131 µM
same,MIC,"E. coli NDM-1 [4]; Escherichia coli, NDM1, read-out: MIC TG1 alone",> 64 µg/mL and > 131 µM
CCC1=C(C(=O)O)N2C(=O)[C@@H](NC(=O)/C(=N/C)c3csc(NC(=O)CC(C)N4CCN(CC)CCN(CC)CC4)n3)[C@H]2SC1 (stereo partly drawn) [BP10],IC50,HepG2 cells [1],62 µg/mL
same,"HepG2 cell viability, effect in words",HepG2 cells [1],not significantly altered at 50-100 μg/ml; also recorded: significantly reduced at 200 μg/ml
same,Induction of necrosis,HepG2 cells [2],does not induce necrosis
same,Extracellular lactate dehydrogenase (LDH) level,HepG2 cells [2],remained unaffected at 1 μg/ml; also recorded: significantly reduced at 8-200 μg/ml
